Source: ChEMBL document CHEMBL4321867, “Optimization of LpxC Inhibitor Lead Compounds Focusing on Efficacy and Formulation for High Dose Intravenous Administration” (J Med Chem, 2020)
Values after ≈ are worked out from the molar mass of the structure shown.

Assays:
[1] = test system: Klebsiella oxytoca; experiment: microbe, parasite or virus in culture
[2] = test system: Haemophilus influenzae; experiment: microbe, parasite or virus in culture
[3] = test system: Pseudomonas aeruginosa; experiment: microbe, parasite or virus in culture
[4] = test system: Acinetobacter baumannii; experiment: microbe, parasite or virus in culture
[5] = test system: Escherichia coli; experiment: microbe, parasite or virus in culture
[6] = test system: Morganella morganii; experiment: microbe, parasite or virus in culture
[7] = test system: Stenotrophomonas maltophilia; experiment: microbe, parasite or virus in culture
[8] = test system: Citrobacter freundii; experiment: microbe, parasite or virus in culture
[9] = test system: Moraxella catarrhalis; experiment: microbe, parasite or virus in culture
[10] = test system: Burkholderia cepacia; experiment: microbe, parasite or virus in culture
[11] = test system: Klebsiella aerogenes; experiment: microbe, parasite or virus in culture
[12] = test system: Serratia marcescens; experiment: microbe, parasite or virus in culture
[13] = test system: Klebsiella pneumoniae; experiment: microbe, parasite or virus in culture
[14] = test system: Proteus mirabilis; experiment: microbe, parasite or virus in culture
[15] = test system: Escherichia coli; experiment: microbe, parasite or virus in culture; settings: ATCC 25922
[16] = in vitro; settings: human, liver microsomes
[17] = physchem; settings: n-octanol/phosphate buffer, pH 7.4
[18] = in vitro; settings: rat, liver microsomes
[19] = in vitro; settings: rat, hepatocytes
[20] = test system: Klebsiella pneumoniae; experiment: microbe, parasite or virus in culture; settings: T6474
[21] = in vivo; settings: mouse, sc, 150 mg/kg
[22] = in vitro; settings: human, hepatocytes
[23] = test system: Pseudomonas aeruginosa; experiment: microbe, parasite or virus in culture; settings: ATCC 27853
[24] = test system: T1, UDP-3-O-acyl-N-acetylglucosamine deacetylase (Pseudomonas aeruginosa (strain ATCC 15692 / PAO1 / 1C / PRS 101 / LMG12228)), P47205 [C40S]; settings: 25 uM
T1 sequence (whole entry): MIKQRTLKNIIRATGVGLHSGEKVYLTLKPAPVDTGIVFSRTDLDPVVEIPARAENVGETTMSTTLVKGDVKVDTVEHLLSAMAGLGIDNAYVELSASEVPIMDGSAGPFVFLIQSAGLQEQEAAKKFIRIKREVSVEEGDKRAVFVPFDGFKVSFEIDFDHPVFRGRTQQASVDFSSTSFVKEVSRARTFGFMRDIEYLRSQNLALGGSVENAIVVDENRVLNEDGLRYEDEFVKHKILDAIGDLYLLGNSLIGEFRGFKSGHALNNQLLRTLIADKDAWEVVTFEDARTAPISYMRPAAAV

[25] = in vitro; settings: rat, plasma
[26] = test system: T2, UDP-3-O-acyl-N-acetylglucosamine deacetylase (Escherichia coli K-12), P0A725 [C125S]; settings: 25 uM
T2 sequence (whole entry): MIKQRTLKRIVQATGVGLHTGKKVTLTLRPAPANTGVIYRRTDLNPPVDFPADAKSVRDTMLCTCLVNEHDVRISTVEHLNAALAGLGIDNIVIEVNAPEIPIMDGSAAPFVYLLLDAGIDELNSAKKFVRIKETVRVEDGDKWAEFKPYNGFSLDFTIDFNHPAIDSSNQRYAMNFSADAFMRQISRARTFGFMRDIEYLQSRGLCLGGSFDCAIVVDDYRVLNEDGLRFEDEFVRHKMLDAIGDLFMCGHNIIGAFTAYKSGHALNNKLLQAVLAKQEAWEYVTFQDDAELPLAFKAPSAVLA

[27] = in vivo; settings: Wistar, rat, iv, 10 mg/kg
[28] = physchem
[29] = test system: Enterobacter cloacae; experiment: microbe, parasite or virus in culture
[30] = physchem; settings: 5% mannitol/water, pH 8.4
[31] = physchem; settings: buffer, pH 7
[32] = physchem; settings: buffer, pH 9
[33] = physchem; settings: buffer, pH 4

| Compound | MIC90 [1] [µg/mL] | MIC90 [2] [µg/mL] | MIC90 [3] [µg/mL] | MIC90 [4] [µg/mL] | MIC90 [5] [µg/mL] | MIC90 [6] [µg/mL] | MIC90 [7] [µg/mL] | MIC90 [8] [µg/mL] | MIC90 [9] [µg/mL] | MIC90 [10] [µg/mL] | MIC90 [11] [µg/mL] | MIC90 [12] [µg/mL] | MIC90 [13] [µg/mL] | MIC90 [14] [µg/mL] | MIC [15] [µg/mL] | microsomal CLint at 1 µM [16] [µL/min/mg] | logD [17] | MIC [20] [µg/mL] | AUC(0-t) at 24 h [21] [ng·h/mL] | MIC [23] [µg/mL] | other results |
| --- | --- | --- | --- | --- | --- | --- | --- | --- | --- | --- | --- | --- | --- | --- | --- | --- | --- | --- | --- | --- | --- |
| O=C(O)c1cn(C2CC2)c2cc(N3CCNCC3)c(F)cc2c1=O [CIPROFLOXACIN] | ≤ 0.016 | ≤ 0.016 | > 8 | > 8 | > 8 | ≤ 0.016 | 8 (≈ 24.1 µM) | 0.125 (≈ 0.377 µM) | 1 (≈ 3.02 µM) | 8 (≈ 24.1 µM) | 0.03 (≈ 0.0905 µM) | 0.25 (≈ 0.754 µM) | > 8 | 0.125 (≈ 0.377 µM) | – | – | – | – | – | – | – |
| C[C@@](CCN1Cc2cc(C#CC#CC3(N)CC3)cn2C1=O)(C(=O)NO)S(C)(=O)=O | – | – | – | – | – | – | – | – | – | – | – | – | – | – | 0.25 (≈ 0.597 µM) | < 10 | 0.7 | 0.25 (≈ 0.597 µM) | 44700 | 0.5 (≈ 1.19 µM) | microsomal CLint at 1 µM [18]: 14 µL/min/mg; hepatocyte CLint at 1 µM [19]: 17 µL/min/1e6 cells; hepatocyte CLint at 1 µM [22]: < 2 µL/min/1e6 cells; deltaTm [24]: 11.6 K; fraction unbound at 1 µM [25]: 0.111; deltaTm [26]: 10 K; clearance at 24 h [27]: 29 mL/min/kg; pKa [28]: 6.5 |
| CN(C)c1cc(NC(=O)CNC(C)(C)C)c(O)c2c1C[C@H]1C[C@H]3[C@H](N(C)C)C(O)=C(C(N)=O)C(=O)[C@@]3(O)C(O)=C1C2=O [TIGECYCLINE] | 0.5 (≈ 0.854 µM) | 0.25 (≈ 0.427 µM) | > 16 | 16 (≈ 27.3 µM) | 1 (≈ 1.71 µM) | 8 (≈ 13.7 µM) | 4 (≈ 6.83 µM) | 1 (≈ 1.71 µM) | 0.5 (≈ 0.854 µM) | > 16 | 1 (≈ 1.71 µM) | 2 (≈ 3.41 µM) | 4 (≈ 6.83 µM) | 4 (≈ 6.83 µM) | – | – | – | – | – | – | MIC90 [29]: 4 µg/mL (≈ 6.83 µM) |
| C[C@@](CCN1Cc2cc(C#CC#C[C@@H]3C[C@@]3(F)CO)cn2C1=O)(C(=O)NO)S(C)(=O)=O | 4 (≈ 8.86 µM) | ≤ 0.03 | 2 (≈ 4.43 µM) | > 16 | 2 (≈ 4.43 µM) | 0.5 (≈ 1.11 µM) | > 16 | 1 (≈ 2.21 µM) | > 16 | 2 (≈ 4.43 µM) | 2 (≈ 4.43 µM) | 1 (≈ 2.21 µM) | 4 (≈ 8.86 µM) | 2 (≈ 4.43 µM) | 0.25 (≈ 0.554 µM) | < 10 | 0.9 | 0.5 (≈ 1.11 µM) | 236000 | 0.5 (≈ 1.11 µM) | solubility [30]: 1000 µg/mL (≈ 2210 µM); microsomal CLint at 1 µM [18]: 12 µL/min/mg; hepatocyte CLint at 1 µM [19]: 13 µL/min/1e6 cells; hepatocyte CLint at 1 µM [22]: < 2 µL/min/1e6 cells; solubility at 24 h [31]: 248 µg/mL (≈ 549 µM); fraction unbound at 1 µM [25]: 0.017; solubility at 24 h [32]: > 760 µg/mL; clearance at 24 h [27]: 5.2 mL/min/kg; MIC90 [29]: 4 µg/mL (≈ 8.86 µM); solubility at 24 h [33]: 220 µg/mL (≈ 487 µM) |
| CC(C)(O)CN1CC(C#CC#Cc2cc3n(c2)C(=O)N(CC[C@](C)(C(=O)NO)S(C)(=O)=O)C3)C1 | – | – | – | – | – | – | – | – | – | – | – | – | – | – | 0.5 (≈ 1.02 µM) | – | 0.7 | 1 (≈ 2.04 µM) | 47300 | 0.5 (≈ 1.02 µM) | deltaTm [24]: 12.1 K; solubility at 24 h [31]: > 830 µg/mL; solubility at 24 h [32]: > 830 µg/mL; deltaTm [26]: 10.3 K; solubility at 24 h [33]: > 830 µg/mL; pKa [28]: 7.8 |
